In article PMC12797170, “Potent Competitive Inhibitors of Ecto-5′-nucleotidase (CD73) based on 6‑(Het)aryl-7-deazapurine Ribonucleoside 5′‑O‑Bisphosphonates” (ACS Pharmacology & Translational Science, 2025):
≈ marks a conversion by molar mass, not a printed value. Where two headings read alike, the source gives them in different places.

How the values were obtained:
[1] = Plasma protein binding, equilibrium dialysis, human plasma; type: in vitro ADME; conditions: undiluted plasma
[2] = Plasma protein binding, mouse plasma; type: in vitro ADME; conditions: mouse, plasma, mouse plasma protein binding; read-out: PPB (m) (converted)
[3] = in vitro; conditions: mouse, plasma
[4] = molecular target: T1, recombinant human CD73 (hCD73) (Homo sapiens, UniProt P21589); experiment: CD73 activity assay on recombinant human CD73; type: biochemical; conditions: ΔGexp = RT ln Ki
T1 sequence (P21589 27-574): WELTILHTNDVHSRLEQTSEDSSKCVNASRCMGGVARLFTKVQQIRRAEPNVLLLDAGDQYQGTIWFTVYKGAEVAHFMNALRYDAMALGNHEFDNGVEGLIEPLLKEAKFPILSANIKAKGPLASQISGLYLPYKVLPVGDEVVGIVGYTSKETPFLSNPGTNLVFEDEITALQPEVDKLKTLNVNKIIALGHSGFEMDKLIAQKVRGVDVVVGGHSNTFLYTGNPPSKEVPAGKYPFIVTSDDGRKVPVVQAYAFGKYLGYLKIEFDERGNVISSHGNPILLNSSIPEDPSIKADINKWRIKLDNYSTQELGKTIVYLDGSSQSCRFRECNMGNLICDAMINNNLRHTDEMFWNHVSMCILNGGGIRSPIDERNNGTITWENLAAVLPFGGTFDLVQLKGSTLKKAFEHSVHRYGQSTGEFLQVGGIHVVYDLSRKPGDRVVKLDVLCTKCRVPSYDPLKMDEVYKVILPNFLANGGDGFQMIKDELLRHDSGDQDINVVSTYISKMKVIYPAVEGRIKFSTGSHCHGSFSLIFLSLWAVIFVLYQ

[5] = in vitro; conditions: human, plasma
[6] = In vivo pharmacokinetic study, intravenous; parameters: species or system male CD-1 mice; conditions: for t1/2 (half-life) / half-life: footnote: t1/2 stability in plasma, text: half-life in mouse PK
Protocol: The pharmacokinetic study was performed by Bienta (Enamine Biology Services) using male CD-1 mice (3 animals, 9 weeks old, body weight ranging from 29.2 to 33.7 g) following intravenous administration. Levels of the test compound were determined by LC-MS/MS in blood plasma over time (seven sampling time points: 5, 15, 30, 60, 120, 240, and 480 min) after a single dose.
Animal treatment and samples preparation were conducted by the Animal Laboratory personnel at Enamine/Bienta.

[7] = Kinetic solubility in PBS; type: physicochemical; conditions: phosphate-buffered saline, pH 7.4, aqueous buffer, kinetic from dmso stock
In short: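 Echo-MS quantitation with calibration from 0.05 to 4 μM, after 1:99 dilution of filtrate into 50% acetonitrile. Filtrate came from a 100 μM PBS (pH 7.4) solution equilibrated 2 h at room temperature with shaking, in duplicate.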

[8] = system: HepG2; experiment: In vitro cytotoxic activity; type: cell-based; conditions: Homo sapiens
Protocol: (§1) All the compounds were also tested for their in vitro cytotoxic activity on a small panel of four cancer cell lines (CCRF-CEM, HepG2, HeLa S3, HL-60) and nonmalignant human dermal fibroblasts (NHDF).

[9] = system: nonmalignant human dermal fibroblasts (NHDF); experiment: In vitro cytotoxic activity; type: cell-based
Protocol: as §1

[10] = system: HL-60; experiment: In vitro cytotoxic activity; type: cell-based; conditions: Homo sapiens
Protocol: as §1

[11] = system: CCRF-CEM; experiment: In vitro cytotoxic activity; type: cell-based; conditions: Homo sapiens
Protocol: as §1

[12] = system: HeLa S3; experiment: In vitro cytotoxic activity; type: cell-based; conditions: Homo sapiens
Protocol: as §1

[13] = Microsomal stability assay, human liver microsomes; type: in vitro ADME
[14] = Microsomal stability assay, mouse liver microsomes; type: in vitro ADME
[15] = Tables 1 and 3, human plasma as printed in footnote, read-out: fup, fraction unbound in human plasma
[16] = human plasma protein binding, read-out: PPB (hu) (converted)
[17] = in vivo PK in mice, unit not given
[18] = male, CD-1, mouse, plasma, iv, 1 mg/kg, intravenous
[19] = mouse, plasma, 1 mg/kg, male CD-1 mice, intravenous, single dose, read-out: Cl (obs), observed clearance
[20] = male, CD-1, mouse, plasma, iv, 1 mg/kg, in vivo PK in mice, unit inferred, read-out: clearance

Row | Compound | fraction unbound at 4 h, 100 µM [1, 15] | fraction unbound at 4 h, 100 µM [1, 16] | fraction unbound at 4 h, 100 µM [2] | half-life at 10 µM [3] [h] | dG_exp, experimental binding free energy [4] | half-life at 10 µM [5] [h] | t1/2 (half-life) ([6]; intravenous) [min] | clearance [6, 17] | half-life [6, 18] [h] | clearance [6, 19] [mL/min/kg] | solubility at 2 h [7] [µM] | IC50 [8] [µM] | IC50 [9] [µM] | IC50 [10] [µM] | IC50 [11] [µM] | IC50 [12] [µM] | clearance [6, 20] [mL/min/kg] | further results
1 | O=P(O)(O)CP(=O)(O)OC[C@H]1O[C@@H](n2ccc3c(-c4ccsc4)ncnc32)[C@H](O)[C@@H]1O [4A.4] | 0.82 | 0.125 | 0.726 | > 2 | –13.2 kcal/mol | > 2 | 4.5 | high clearance | 0.0833 | 12 | 90 (≈ 44.2 µg/mL) | > 10 | > 10 | 3.4 | 9.7 | > 10 | – | –
2 | O=P(O)(O)CP(=O)(O)OC[C@H]1O[C@@H](n2ccc3c(-c4cccc5ccccc45)ncnc32)[C@H](O)[C@@H]1O [4A.6] | 0.63 | 0.086 | 0.626 | > 2 | –14.4 kcal/mol | > 2 | – | – | 2.83 | – | 62 (≈ 33.2 µg/mL) | > 10 | > 10 | > 10 | > 10 | > 10 | 1.4 | –
3 | O=P(O)(O)CP(=O)(O)OC[C@H]1O[C@@H](n2ccc3c(-c4cc5ccccc5o4)ncnc32)[C@H](O)[C@@H]1O [4A.8] | 0.37 | 0.019 | 0.371 | > 2 | –13.5 kcal/mol | > 2 | 8.5 | high clearance | 0.15 | 11 | 98 (≈ 51.5 µg/mL) | > 10 | > 10 | > 10 | > 10 | > 10 | – | –
4 | O=P(O)(O)CP(=O)(O)OC[C@H]1O[C@@H](n2ccc3c(-c4cccc5c4oc4ccccc45)ncnc32)[C@H](O)[C@@H]1O [4A.10] | 0.13 | 0.004 | 0.135 | > 2 | –12.9 kcal/mol | > 2 | – | moderate clearance | 2.38 | 3.5 | > 100 | > 10 | > 10 | 9.5 | > 10 | > 10 | – | –
5 | O=P(O)(O)CP(=O)(O)OC[C@H]1O[C@@H](n2ccc3c(-c4cccc5c4CCCC5)ncnc32)[C@H](O)[C@@H]1O [4A.12] | 0.38 | 0.073 | 0.381 | > 2 | –15.1 kcal/mol | > 2 | – | – | 2.17 | – | 94 (≈ 50.7 µg/mL) | > 10 | > 10 | > 10 | > 10 | > 10 | 2.1 | Mics (hu) comp remaining 60 min ([13]; 10 μM): 96%; microsomal CLint at 10 µM ([13]; pooled liver microsomes, pH 7.4, read-out: Mics (hu) CLint): 1 µL/min/mg; Mics (m) comp remaining 60 min ([14]; 10 μM): 100%; microsomal CLint at 10 µM ([14]; pooled liver microsomes, pH 7.4, read-out: Mics (m) CLint): < 1 µL/min/mg
